Measured values published in US12479834B2, “Phenol compound or salt thereof” (TAIHO PHARMACEUTICAL CO., LTD., priority 2019, dated 2025).

Experiments:
G12C K-Ras4B (1-169) = target: T1, G12C K-Ras4B (1-169) (Homo sapiens, UniProt P01116, G12C); assay: Binding to KRAS G12C mutant, compound binding rate by LC-MS; conditions: final compound concentration 2 μM, 1 μM protein, 2 hours at 25° C.
T1 construct: G12C K-Ras4B (1-169) protein, which was a KRAS G12C mutant; His tag (N, cleaved yes); made in house; host or cells: E. coli BL21 (DE3)
From the text: K-Ras4B (1-169) protein was expressed in E. coli strain BL21 (DE3) by synthesizing a nucleotide sequence encoding the amino acid sequence represented by GenPept ID NP_004976 as a sequence optimized for E. coli by use of GeneArt Technology (Life Technologies Corp.) such that the protein was N-terminally His-tagged and fused with a TEV protease recognition sequence (ENLYFQG). The expressed His-tagged K-Ras4B (1-169) was purified through a Ni column, then cleaved at its tag with N-terminally His-tagged TEV protease, and passed through a Ni column again to recover a flow-through fraction, which was further purified by anion-exchange chromatography to obtain the protein. G12C K-Ras4B (1-169) protein, which was a KRAS G12C mutant, was obtained in the same way as in the K-Ras4B(1-169) protein except that glycine at position 12 of the amino acid sequence represented by GenPept ID NP_004976 was mutated to cysteine.
The K-Ras4B (1-169) protein and the G12C K-Ras4B (1-169) protein were mixed and diluted with a buffer solution (1×TBS and 0.1 mM TCEP) to prepare a protein solution containing 1 μM each of the proteins. Each test compound was dissolved at 10 mM in DMSO and further diluted 10-fold with DMSO to make a 1 mM solution. Then, the solution was diluted 5-fold with DMSO to make a 200 μM solution. The 200 μM solution was further diluted 5-fold to make a […] solution. 1 μL of the 40 μM test compound was added to 19 μL of the 1 μM protein solution such that the final compound concentration was 2 μM. The mixture was stored for 2 hours in an incubator of 25° C., and the reaction was terminated by the addition of 80 μL of a 1×TBS solution containing 0.2% formic acid, followed by LC-MS measurement.
The LC-MS measurement was performed by using Xevo G2-S Q-Tof manufactured by Waters Corp., performing reverse-phase chromatography with a desalting column, and obtaining mass spectra of positive ions by electrospray. For the mass spectra, spectra of polyvalent ions were collectively converted to molecular weights by the MaxEnt technique using OpenLynx software, and then, a compound binding rate was obtained from the ratio of […].
The binding rates of test compounds having a final compound concentration of 2 μM for G12C K-Ras4B (1-169) are shown in the table below. The binding rate for G12C K-Ras4B (1-169) is rated “A” for 80% or more, “B” for 60% or more and less than 80%, “C” for 40% or more and less than 60%, “D” for 20% or more and less than 40%, and “E” for less than 20%.

KRAS G12C mutant = target: T2, KRAS G12C mutant (Homo sapiens, UniProt P01116, G12C); assay: Inhibition of SOS1-mediated nucleotide (GDP-GTP) exchange reaction of KRAS G12C mutant, BODIPY FL GDP fluorescence; format: biochemical; conditions: preincubated 25° C. 4 hours with 25 nM KRAS G12C bound with BODIPY FL GDP; SOS1 100 nM, GppNHp 1 μM, 30 minutes
T2 construct: 50 μM G12C K-Ras4B (1-169) protein and 1 mM BODIPY® FL GDP; His tag (N, cleaved yes); made in house; host or cells: E. coli BL21 (DE3)
From the text: SOS1 protein was expressed in E. coli strain BL21 (DE3) by synthesizing a nucleotide sequence encoding the amino acid sequence represented by GenPept ID NP_005624 as a sequence optimized for E. coli by use of GeneArt Technology (Life Technologies Corp.) such that the protein was N-terminally His-tagged and fused with a TEV protease recognition sequence (ENLYFQG). The expressed His-tagged SOS1 (564-1049) was purified through a Ni column, then cleaved at its tag with N-terminally His-tagged TEV protease, and passed through a Ni column again to recover a flow-through fraction to obtain the protein.
Each compound was studied for its inhibitory effect on the exchange reaction of GDP into GppNHp in BODIPY® FL bound with the KRAS G12C mutant by fluorescence measurement using the G12C K-Ras4B (1-169) protein and the SOS1 protein.
For the preparation of the KRAS G12C mutant bound with BODIPY® FL GDP, first, 50 μM G12C K-Ras4B (1-169) protein and 1 mM BODIPY® FL GDP (Invitrogen Corp., G22360) were incubated for 1 hour in a buffer solution (20 mM Tris-HCl (pH 7.5), 50 mM NaCl, and 1 mM DTT) in ice in the presence of 2.5 mM EDTA. Then, MgCl2 was added thereto at a final concentration of 10 mM, then the mixture was incubated at room temperature for 30 minutes, and then, the protein was passed through a NAP-5 column for removal of free nucleotides and used for compound evaluation.
For the measurement of the inhibitory activity of compounds against nucleotide exchange reaction, first, the compound of the present invention was serially diluted with DMSO. Subsequently, the serially diluted solution of the compound of the present invention in DMSO (final concentration of DMSO: 5%) and the KRAS G12C mutant (25 nM) bound with BODIPY® FL GDP were added into a reaction buffer solution (20 mM Tris-HCl (pH 7.5), 100 mM NaCl, 1 mM MgCl2, 2 mM DTT, and 0.1% Tween 20), and the mixture was preincubated at 25° C. for 4 hours. Then, Son of Sevenless Homolog 1 (SOS1, amino acid region: 564-1049) and GppNHp (GMPPNP, Jena Bioscience GmbH, NU-401-50) were added thereto at final concentrations of 100 nM and 1 μM, respectively, and the mixture was reacted for 30 minutes. The change in fluorescence intensity of BODIPY® FL (excitation wavelength: 485 nm, fluorescence wavelength: 520 nm) between immediately after the start of reaction and after 30 minutes from the start of reaction was standardized, and then, the compound concentration at which 50% inhibition was achieved was calculated as IC50 (nM) when the signal value for only DMSO was defined as 0% inhibition and the signal value for no addition of GppNHp was defined as 100% inhibition.

Row | binding rate for G12C K-Ras4B (1-169) (G12C K-Ras4B (1-169)) | IC50 (KRAS G12C mutant) | SMILES
1 | B (60% or more and less than 80%) | 815 nM | C=CC(=O)N1CC(NC(=O)c2cccc(CNc3cc(C(C)(C)C)c(Cl)cc3O)c2)C1 [Example 2, N-(1-Acryloylazetidin-3-yl)-3-(((5-(tert-butyl)-4-chloro-2-hydroxyphenyl)amino)methyl)benzamide]
2 | D (20% or more and less than 40%) | 164 nM | C=CC(=O)N1CC[C@@H](N(C)C(=O)c2ccc(CNc3cc(C(C)(C)C)c(Cl)cc3O)o2)C1 [Example 6, (R)—N-(1-Acryloylpyrrolidin-3-yl)-5-(((5-(tert-butyl)-4-chloro-2-hydroxyphenyl)amino)methyl)-N-methylfuran-2-carboxamide]
3 | A (80% or more) | 39 nM | C=CC(=O)N1CC(NC(=O)c2cnc(CNc3cc(C(C)(C)C)c(Cl)cc3O)s2)C1 [Example 9, N-(1-Acryloylazetidin-3-yl)-2-(((5-(tert-butyl)-4-chloro-2-hydroxyphenyl)amino)methyl)thiazole-5-carboxamide]
4 | B (60% or more and less than 80%) | 123 nM | C=CC(=O)N1CC(NC(=O)c2cnc(CNc3cc(C(C)(C)C)c(Cl)cc3O)o2)C1 [Example 11, N-(1-Acryloylazetidin-3-yl)-2-(((5-(tert-butyl)-4-chloro-2-hydroxyphenyl)amino)methyl)oxazole-5-carboxamide]
5 | A (80% or more) | 735 nM | C=CC(=O)N1CC(NC(=O)c2coc(CNc3cc(C(C)(C)C)c(Cl)cc3O)n2)C1 [Example 13, N-(1-Acryloylazetidin-3-yl)-2-(((5-(tert-butyl)-4-chloro-2-hydroxyphenyl)amino)methyl)oxazole-4-carboxamide]
6 | A (80% or more) | 3010 nM | C=CC(=O)N1CC(NC(=O)c2cc(CNc3cc(C(C)(C)C)c(Cl)cc3O)ccn2)C1 [Example 16, N-(1-Acryloylazetidin-3-yl)-4-(((5-(tert-butyl)-4-chloro-2-hydroxyphenyl)amino)methyl)picolinamide]
7 | A (80% or more) | 233 nM | C=CC(=O)N1CC(NC(=O)c2nc(CNc3cc(C(C)(C)C)c(Cl)cc3O)cn2C)C1 [Example 19, N-(1-Acryloylazetidin-3-yl)-4-(((5-(tert-butyl)-4-chloro-2-hydroxyphenyl)amino)methyl)-1-methyl-1H-imidazole-2-carboxamide]
8 | B (60% or more and less than 80%) | 808 nM | C=CC(=O)N1CC(NC(=O)c2oc(CNc3cc(C(C)(C)C)c(Cl)cc3O)cc2C)C1 [Example 21, N-(1-Acryloylazetidin-3-yl)-5-(((5-(tert-butyl)-4-chloro-2-hydroxyphenyl)amino)methyl)-3-methylfuran-2-carboxamide]
9 | D (20% or more and less than 40%) | 2380 nM | C=CC(=O)N1CC(NC(=O)c2ccc(CNc3cc(C(C)(C)C)c(Cl)cc3O)cc2Cl)C1 [Example 22, N-(1-Acryloylazetidin-3-yl)-4-(((5-(tert-butyl)-4-chloro-2-hydroxyphenyl)amino)methyl)-2-chlorobenzamide]

Continued, compound first:

Row | SMILES | binding rate for G12C K-Ras4B (1-169) (G12C K-Ras4B (1-169)) | IC50 (KRAS G12C mutant)
10 | C=CC(=O)N1CC(NC(=O)c2ccc(CNc3cc(C(C)(C)C)c(Cl)cc3O)cc2)C1 [Example 3, N-(1-Acryloylazetidin-3-yl)-4-(((5-(tert-butyl)-4-chloro-2-hydroxyphenyl)amino)methyl)benzamide] | B (60% or more and less than 80%) | 753 nM
11 | C=CC(=O)N1CC(NC(=O)c2ccc(CNc3cc(C(C)(C)C)c(Cl)cc3O)s2)C1 [Example 7, N-(1-Acryloylazetidin-3-yl)-5-(((5-(tert-butyl)-4-chloro-2-hydroxyphenyl)amino)methyl)thiophene-2-carboxamide] | A (80% or more) | 1510 nM
12 | C=CC(=O)N1CC(NC(=O)c2csc(CNc3cc(C(C)(C)C)c(Cl)cc3O)n2)C1 [Example 8, N-(1-Acryloylazetidin-3-yl)-2-(((5-(tert-butyl)-4-chloro-2-hydroxyphenyl)amino)methyl)thiazole-4-carboxamide] | A (80% or more) | 58 nM
13 | C=CC(=O)N1CC(NC(=O)c2nc(CNc3cc(C(C)(C)C)c(Cl)cc3O)cs2)C1 [Example 10, N-(1-Acryloylazetidin-3-yl)-4-(((5-(tert-butyl)-4-chloro-2-hydroxyphenyl)amino)methyl)thiazole-2-carboxamide] | A (80% or more) | 67 nM
14 | C=CC(=O)N1CC(NC(=O)c2ncc(CNc3cc(C(C)(C)C)c(Cl)cc3O)o2)C1 [Example 12, N-(1-Acryloylazetidin-3-yl)-5-(((5-(tert-butyl)-4-chloro-2-hydroxyphenyl)amino)methyl)oxazole-2-carboxamide] | C (40% or more and less than 60%) | 954 nM
15 | C=CC(=O)N1CC(NC(=O)c2nc(CNc3cc(C(C)(C)C)c(Cl)cc3O)co2)C1 [Example 14, N-(1-Acryloylazetidin-3-yl)-4-(((5-(tert-butyl)-4-chloro-2-hydroxyphenyl)amino)methyl)oxazole-2-carboxamide] | A (80% or more) | 420 nM
16 | C=CC(=O)N1CC(NC(=O)c2ccnc(CNc3cc(C(C)(C)C)c(Cl)cc3O)c2)C1 [Example 15, N-(1-Acryloylazetidin-3-yl)-2-(((5-(tert-butyl)-4-chloro-2-hydroxyphenyl)amino)methyl)isonicotinamide] | D (20% or more and less than 40%) | 825 nM
17 | C=CC(=O)N1CC(NC(=O)c2cncc(CNc3cc(C(C)(C)C)c(Cl)cc3O)c2)C1 [Example 17, N-(1-Acryloylazetidin-3-yl)-5-(((5-(tert-butyl)-4-chloro-2-hydroxyphenyl)amino)methyl)nicotinamide] | D (20% or more and less than 40%) | 2070 nM
